Broadly, the EC50 is the concentration at which the effect is half-maximal. In general, IC50 refers to the concentration at which inhibition is half-maximal.

Results on 10 molecules are retold here after ChEMBL document CHEMBL5247579, “Targeting PGAM1 in cancer: An emerging therapeutic opportunity” (Eur J Med Chem, 2022).

The subject of experiment [1] is NCI-H1299. The experiment is described as follows: Antiproliferative activity against human NCI-H1299 cells assessed as decrease in cell viability incubated for 72 hrs by trypan blue exclusion assay. The experiment is classed as functional, cell-based. The note with it: NCI-H1299, 72 h.
Another experiment has as its system PC-9. The experiment is described as follows: Antiproliferative activity against human PC-9 cells assessed as reduction in cell viability incubated for 72 hrs by CCK8 assay. The note with it: PC-9, 72 h. The experiment is classed as functional, cell-based. A general note: Formazan colour is commonly taken as a measure of viable cells.
Another experiment deals with KG-1a. The experiment can be described thus: Antiproliferative activity against human KG-1a cells assessed as decrease in cell viability incubated for 72 hrs by trypan blue exclusion assay. The experiment is classed as functional, cell-based.
The test system of experiment [2] is A549. The experiment can be described thus: Antiproliferative activity against human A549 cells assessed as reduction in cell viability incubated for 72 hrs by CCK8 assay. The experiment is classed as functional, cell-based. The settings on record: A549, 72 h.
The target of experiment [3] is T1, Phosphoglycerate mutase 1 (Homo sapiens, UniProt P18669). The experiment is described as follows: Inhibition of His-tagged recombinant PGAM1 (unknown origin) expressed in Escherichia coli BL21 assessed as decrease in absorbance from oxidation of NADH in presence of LDH, pyruvate kinase M1 and NADH by microplate reader assay.
T1 sequence (P18669 whole entry): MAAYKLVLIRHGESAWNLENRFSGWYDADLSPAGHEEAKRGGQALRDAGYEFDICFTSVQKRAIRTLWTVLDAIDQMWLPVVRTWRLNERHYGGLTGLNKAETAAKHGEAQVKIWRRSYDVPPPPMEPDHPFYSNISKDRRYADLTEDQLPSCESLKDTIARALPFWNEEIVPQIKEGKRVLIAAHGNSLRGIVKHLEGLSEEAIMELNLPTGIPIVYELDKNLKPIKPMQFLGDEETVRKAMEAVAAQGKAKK
Another experiment deals with ASPC1. The experiment can be described thus: Antiproliferative activity against human ASPC1 cells assessed as reduction in cell viability incubated for 24 hrs by CCK-8 assay. The settings on record: ASPC1, 24 h. The experiment is classed as functional, cell-based.
A further experiment relates to MIA PaCa-2. The experiment can be described thus: Antiproliferative activity against human MIA PaCa-2 cells assessed as reduction in cell viability incubated for 24 hrs by CCK-8 assay. The experiment is classed as functional, cell-based. The note with it: MIA PaCa-2, 24 h.
The subject of the next experiment is PANC-1. The experiment is described as follows: Antiproliferative activity against human PANC-1 cells assessed as reduction in cell viability incubated for 24 hrs by CCK-8 assay. The experiment is classed as functional, cell-based. The settings on record: PANC-1, 24 h.
In experiment [4] the target is T1, Phosphoglycerate mutase 1. The experiment is described as follows: Inhibition of recombinant PGAM1 (unknown origin) assessed as decrease in absorbance in presence of LDH, pyruvate kinase M2 and NADH by spectroscopic analysis.
In experiment [5] the test system is A549. The experiment is described as follows: Antiproliferative activity against human A549 cells assessed as reduction in cell viability incubated for 72 hrs by MTT assay. The experiment is classed as functional, cell-based. The note with it: A549, 72 h.
Experiment [6] concerns NCI-H1299. The experiment can be described thus: Antiproliferative activity against human NCI-H1299 cells assessed as reduction in cell viability incubated for 72 hrs by MTT assay. The experiment is classed as functional, cell-based. The settings on record: NCI-H1299, 72 h.
For experiment [7], the system named is HCC827. The experiment is described as follows: Antitumor activity against erlotinib-resistant human HCC827 cells assessed as reduction in cell viability incubated for 72 hrs by CCK-8 assay. The experiment is classed as functional, cell-based. The note with it: HCC827, 72 h.
The subject of experiment [8] is HCC827. The experiment is described as follows: Antitumor activity against human HCC827 cells assessed as reduction in cell viability incubated for 72 hrs by CCK-8 assay. The experiment is classed as functional, cell-based. The note with it: HCC827, 72 h.
Experiment [9] concerns A549. The experiment is described as follows: Antitumor activity against human A549 cells assessed as reduction in cell viability incubated for 72 hrs by CCK-8 assay. The experiment is classed as functional, cell-based. The settings on record: A549, 72 h.
In experiment [10] the target is T1, Phosphoglycerate mutase 1. The experiment is described as follows: Allosteric inhibition of PGAM1 (unknown origin) assessed as decrease in absorbance in presence of LDH, pyruvate kinase M2 and NADH by spectroscopic analysis.
Another experiment deals with MDA-MB-231. The experiment is described as follows: Antiproliferative activity against human MDA-MB-231 cells assessed as inhibition of cell proliferation incubated for 12 hrs by BrdU incorporation assay. The experiment is classed as functional, cell-based. The note with it: MDA-MB-231, 12 h. (Incorporation of labelled thymidine or its analogues reports DNA synthesis.)

In experiment [11] the target is T1, Phosphoglycerate mutase 1. The experiment is described as follows: Inhibition of human PGAM1 in human MDA-MB-231 cells assessed as decrease in PGAM1 activity incubated for 2 hrs by UV/Vis spectrophotometry. The experiment is classed as cell-based.
For experiment [12], the target named is T1, Phosphoglycerate mutase 1. The experiment is described as follows: Inhibition of His6-tagged human PGAM1 expressed in Escherichia coli BL21(DE3)pLysS cells assessed as decrease in autofluorescence from oxidation of NADH in presence of LDH and pyruvate kinase M1 by multiple enzymes coupled assay.

For `O=C1c2ccccc2C(=O)c2c1cc(S(=O)(=O)Nc1ccc(C(F)(F)F)cc1)c(O)c2O`, the EC50 with NCI-H1299 [1] was determined as 25.6 µM; with PC-9, 17.8 µM; with KG-1a, 17.1 µM; in the experiment with A549 [2], 38.7 µM.

As for `[N-]=[N+]=NCCCCC(=O)Oc1ccccc1S(=O)(=O)Nc1cc2c(c(O)c1O)C(=O)c1ccccc1C2=O`, the IC50 in experiment [3] was 1.3 µM.

For `O=C1c2ccccc2C(=O)c2c1cc(NS(=O)(=O)c1ccc(N3CCCC3)cc1)c(O)c2O`, the results for the EC50 in the experiment with ASPC1, with MIA PaCa-2 and with PANC-1 were 0.51 µM, 0.271 µM and 0.501 µM, respectively. For the same molecule, the IC50 in experiment [4] came out at 0.105 µM.

`CN(C)c1ccc(S(=O)(=O)Nc2cc3c(c(O)c2O)C(=O)c2ccccc2C3=O)cc1`: the half-inhibitory concentration (IC50) in [4] was found to be 0.77 µM.

For `O=C1c2ccccc2C(=O)c2c1cc(NS(=O)(=O)O)c(O)c2O`, the IC50 in [4] was determined as 5.4 µM.

For `CC(=O)Oc1ccccc1S(=O)(=O)Nc1cc2c(c(O)c1O)C(=O)c1ccccc1C2=O`, the IC50 in experiment [3] worked out at 1 µM.

Turning to `O=C1c2ccccc2C(=O)c2c1cc(NS(=O)(=O)c1ccc(Cl)cc1)c(O)c2O`, the results for the concentration for a half-maximal effect (EC50) in the experiment with A549 [5] and in the experiment with NCI-H1299 [6] were 12.7 µM and 6.9 µM, respectively.

Regarding `O=C1c2ccccc2C(=O)c2c1cc(NS(=O)(=O)c1ccc(N3CCC3)cc1)c(O)c2O`, the EC50 came out at 1.02 µM in the experiment with HCC827 [7], 1.71 µM in the experiment on HCC827 [8] and 5.62 µM in the experiment on A549 [9]. Besides, in experiment [10], the IC50 was 0.85 µM.

Regarding `C#CCCCC(=O)OC(C)(C)C1CCCOC(OC(=O)N[C@@H](Cc2c[nH]c3ccccc23)C(=O)OCc2ccccc2)C1` (some centres not stated), the IC50 with MDA-MB-231 was determined as 19 µM. Besides, the EC50 in [11] amounted to 33 µM.

With `O=C1c2ccccc2C(=O)c2c1ccc(O)c2O` [ATHRAQUINONES A], in the experiment on KG-1a, the EC50 is 60.2 µM. Besides, the concentration for half-maximal inhibition (IC50) in experiment [12] is above 20 µM.
